For one data set, the system named is Rattus norvegicus. The data set can be described thus: AUC (0 to 24 hrs) in rat at 10 mg/kg, po and 2 mg/kg, iv. It is filed as ADME, organism-based, Plasma. The conditions noted are these: in vivo.
In another data set the test system is Canis familiaris. Description: AUC (0 to 24 hrs) in dog at 2 mg/kg, po. Also on record: time < 24 hr, dose 2 mg/kg, route oral. Format: ADME, organism-based, Canis lupus familiaris, Plasma. Conditions: in vivo.

The AUC is concentration integrated over time. Higher therefore signals more exposure.

In turn, `Nc1nc(Cl)c(C#Cc2nccs2)c(N[C@@H]2C[C@H](CO)[C@@H](O)[C@H]2O)n1` returned an AUC with Rattus norvegicus of 0.6 µM·h.

On to `Nc1nc(Cl)c(C#Cc2ccsc2)c(N[C@@H]2C[C@H](CO)[C@@H](O)[C@H]2O)n1`, for which the exposure (AUC) in the data set on Rattus norvegicus worked out at 1.6 µM·h; in the data set on Canis familiaris it was 2.2 µM·h.

Source of the values: ChEMBL document CHEMBL1938259, “Novel substituted pyrimidines as HCV replication (replicase) inhibitors” (Bioorg Med Chem Lett, 2012).
